For this experiment, the target named is T1, human EDG-2 (Homo sapiens, UniProt Q92633).
T1 construct: expressed in transfected cells; host or cells: Chinese hamster ovary (CHO) cells
In words: Evaluation of EDG-2 antagonistic activity by monitoring the change of intracellular calcium ion concentration. It counts as cell-based. The following applies: CHO cells overexpressing human EDG-2 gene; LPA final concentration 100 nM; intracellular calcium ion concentration (Fura2-AM). The procedure: A series of the procedure is based on the basic gene manipuration technique, that is gene overexpressed cells are prepared and a conventional method was utilized. The usual method of measurement was improved for getting enhancement of measurement precision and/or measurement sensitivity of the evaluation of compounds in the present invention. A detailed method of the experiment was shown in the following clause.
Evaluation of EDG-2 antagonistic activity by monitoring the change of intracellular calcium ion concentration
Evaluation of EDG-2 antagonistic activity was carried out by using Chinese hamster ovary (CHO) cells which overexpressed human EDG-2 gene. Those cells were cultured with Ham's F12 medium (GIBCO BRL company No. 11765-047) containing 10% FBS (fetal bovine serum), penicillin/streptomycin and blasticidin (5 μg/ml). At first in order to uptake Fura2-AM (Dojindo company No. 348-05831) into the cells, cells were incubated for 60 minutes at 37 degrees in Fura2-AM (5 μM) solution [Ham's F12 medium containing 10% FBS, 20 mM HEPES buffer (pH 7.4) and 2.5 mM probenecid (Sigma company No. P-8761)]. Next, it was washed with Hanks solution containing HEPES buffer (20 mM, pH 7.4) and probenecid (2.5 mM) once, and immersed into the Hanks solution. Plates were set in fluorescent drug screening system (Hamamatsu photonics company, FDSS-2000) and intracellular calcium ion concentration was measured for 30 seconds with no stimulation and then solution of the compound of the present invention of formula (I) was added. Five minutes after adding thereto LPA (final concentration: 100 nM) was added, the increase of intracellular calcium ion concentrations before and after the addition of LPA (excitation wave length: […]; fluorescent wave length: […]) were measured every 3 seconds. The compound of the present invention represented by the formula (I) was dissolved in dimethyl sulfoxide (DMSO), and it was added so that the final concentration became 1 nM to 10 μM. 1-oleoyl (18:1)-LPA (Sigma) or 1-linolenoyl (18:3)-LPA was used as LPA. […]

The results in this text go back to patent US8124645B2, “LPA receptor antagonist” (Ono Pharmaceutical Co., Ltd., priority 2002, dated 2012).

T1 sequence (Q92633 whole entry): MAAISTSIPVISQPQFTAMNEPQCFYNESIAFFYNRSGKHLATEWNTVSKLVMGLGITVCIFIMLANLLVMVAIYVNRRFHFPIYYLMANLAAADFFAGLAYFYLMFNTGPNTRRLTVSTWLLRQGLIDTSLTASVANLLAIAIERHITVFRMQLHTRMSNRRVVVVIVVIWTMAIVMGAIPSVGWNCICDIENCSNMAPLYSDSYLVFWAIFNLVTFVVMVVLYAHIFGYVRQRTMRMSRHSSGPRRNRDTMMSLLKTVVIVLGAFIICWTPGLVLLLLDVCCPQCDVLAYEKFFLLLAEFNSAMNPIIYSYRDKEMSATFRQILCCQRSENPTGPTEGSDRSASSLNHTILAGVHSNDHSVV

With `COc1cc(C(=O)C(CCCc2ccccc2)Cc2ccc(Oc3ccccc3C(=O)O)cc2)cc(OC)c1OC` (stereo not drawn) [8(1), 2-(4-(2-(3,4,5-trimethoxyphenylcarbonyl)-5-phenylpentyl)phenyloxy)benzoic acid], the IC50 was 110 nM.
For `COc1cc(OC)cc(C(=O)N(CCCc2ccccc2)Cc2ccc(Oc3ccccc3C(=O)O)cc2)c1` [3(33), 2-(4-(N-(3,5-dimethoxyphenylcarbonyl)-N-(3-phenylpropyl)aminomethyl)phenyloxy)benzoic acid] the value was 95 nM.
For `COc1cc(C(=O)N(CCCc2ccccc2)Cc2ccc(CC(=O)O)cc2)cc(OC)c1C` [Example 2(4), (4-(N-(3,5-dimethoxy-4-methylphenylcarbonyl)-N-(3-phenylpropyl)aminomethyl)phenyl)acetic acid] the value was 150 nM.
